Test results published in ChEMBL document CHEMBL1201862, “PubChem BioAssay data set” (2004).
The source made the active and inactive calls.

What was measured:
[1] = test system: Streptococcus sp. 'group A'; assay: Streptococcus pyogenes SK(-)GAS viability under kanamycin – luminescence, BacTiterGlo, confirmation, counter-screen for streptokinase expression inhibitor project, dose response (AID 1900); type: functional, organism-based
[2] = Luminescence Cell-Based Dose Retest to Confirm Inhibitors of Cancer Stem Cells. [Related pubchem assays (depositor defined):AID2717, AID2721]; type: functional; details: Homo sapiens
[3] = biological target: Latent membrane protein 1 (Human herpesvirus 4 (strain B95-8), UniProt P03230); assay: LMP1 TES1 pathway selectivity over dsRED control – imaging, HEK293T, dual-color eGFP/dsRED, cherry-picks, selectivity assay for LMP1 NF-kB inhibitor project, dose response (AID 588398); type: functional, cell-based
[4] = microbe, parasite or virus in culture; type: functional; details: Mycobacterium tuberculosis
Streptococcus = assay: GAS UMAA2166 growth inhibition – luminescence, BacTiterGlo, counter-screen for streptokinase expression inhibitor project, dose response (AID 1915); type: functional, organism-based;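 note: potency for reduction of bacterial viability or growth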
[5] = loss of viability in HepG2 cells – cell-based, CellTiter-Glo, cherry-picked, cytotoxicity control for Shn3 inhibitor project, dose response (AID 624134); type: functional
[6] = alpha-synuclein stem-loop luciferase translation blockers – H4 neuroglioma cells, luminescence, confirmation (AID 1988); type: functional, cell-based
INS1 = assay: INS-1E survival protection against cytokine death – cell-based, luminescence, retest, dose response (AID 449756); type: functional; details: Rattus norvegicus;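 note: cell death triggered by IL-1 beta plus TNF-alpha plus IFN-gamma mixture; protective hits raise ATP signal compared with cytokine alone wells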
[7] = reduction of Shn3 3'UTR-driven luciferase in osteoblasts – cell-based, Clone20 osteoblasts, firefly luciferase, cherry-picked, dose response (AID 624132); type: functional;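 note: firefly luciferase luminescence from reporter carrying the Shn3 3'UTR in osteoblasts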
HEK293 = assay: EBV LMP1 TES2 canonical NF-kB signalling blockers – cell-based, HEK293, luciferase, cherry-pick, dose response (AID 588343); type: functional; details: Homo sapiens
[8] = Trypanosoma cruzi growth suppression in host cells – NIH3T3 host cells, beta-gal luminescence, confirmation (AID 2044); type: functional, cell-based;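 note: intracellular parasites grown in NIH/3T3 mouse fibroblasts as host cells; luminescent beta-galactosidase reporter signal from transgenic T. cruzi replicating inside host cells; inhibitors lower the luminescence signal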
[9] = NIH3T3 cell viability loss – ATP luminescence, mouse fibroblasts, counter-screen, dose response (AID 2010); type: functional, cell-based;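 note: cells exposed to compound for about 90 hours before reading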
[10] = Luminescence Cell-Based Dose Response HTS to Identify Inhibitors of 5'UTR Stem-Loop Driven Prion Protein mRNA Translation in H4 Neuroglioblastoma Cells. [Related pubchem assays: 1827 (Project Summary), 1813 (Primary HTS)]; type: functional
[11] = non-specific 3'UTR reporter inhibition in Clone20-Shn3RL – cell-based, Renilla luciferase, cherry-picked, counter-screen for Shn3 inhibitor project, dose response (AID 624133); type: functional
[12] = luciferase reporter signal suppression in cells – H4 neuroglioma cells, luminescence, dose response (AID 1990); type: functional, cell-based
CHO = CHO cell viability loss, potency – luminescence, cytotoxicity control for TLR9-MyD88 binding inhibitor project, dose response (AID 588339); type: functional, cell-based, hamster; details: Cricetulus griseus;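 note: CHO cells stably coexpressing TLR9 and MyD88 fusions from primary screen; compound exposure lasted 48 hours before viability readout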
Beta Lactamase = Beta Lactamase (Pseudomonas aeruginosa, UniProt Q932Y6); assay: BLA reporter interference, concentration series – BLA reporter cells, FRET fluorescence, artefact control for TLR9-MyD88 binding inhibitor project, dose response (AID 588341); type: cell-based;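 note: cell based assay in CHO-K1 cells stably expressing beta-lactamase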
Caspase-3 [13] = biological target: T1, Caspase-3 (Homo sapiens, UniProt P42574); assay: SAR Analysis of small molecule inhibitors of Sentrin-specific proteases (SENPs) using a Caspase-3 Selectivity assay. [Related pubchem assays (depositor defined):AID2540, AID2599, AID434973, AID489001]; type: functional
T1 sequence (P42574 whole entry): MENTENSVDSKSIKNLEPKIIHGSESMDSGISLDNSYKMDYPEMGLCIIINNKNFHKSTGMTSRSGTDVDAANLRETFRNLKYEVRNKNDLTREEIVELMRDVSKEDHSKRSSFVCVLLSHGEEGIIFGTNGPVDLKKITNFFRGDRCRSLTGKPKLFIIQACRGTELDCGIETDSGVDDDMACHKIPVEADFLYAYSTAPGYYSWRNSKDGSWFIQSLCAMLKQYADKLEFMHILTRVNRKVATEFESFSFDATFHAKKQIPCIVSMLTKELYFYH

[14] = biological target: T2, Sentrin-specific protease 7 (Homo sapiens, UniProt Q9BQF6); assay: inhibition of human SENP7 cleavage activity – biochemical, luminescence, set 2, SAR follow-up (AID 588600); type: functional
T2 sequence (Q9BQF6 whole entry): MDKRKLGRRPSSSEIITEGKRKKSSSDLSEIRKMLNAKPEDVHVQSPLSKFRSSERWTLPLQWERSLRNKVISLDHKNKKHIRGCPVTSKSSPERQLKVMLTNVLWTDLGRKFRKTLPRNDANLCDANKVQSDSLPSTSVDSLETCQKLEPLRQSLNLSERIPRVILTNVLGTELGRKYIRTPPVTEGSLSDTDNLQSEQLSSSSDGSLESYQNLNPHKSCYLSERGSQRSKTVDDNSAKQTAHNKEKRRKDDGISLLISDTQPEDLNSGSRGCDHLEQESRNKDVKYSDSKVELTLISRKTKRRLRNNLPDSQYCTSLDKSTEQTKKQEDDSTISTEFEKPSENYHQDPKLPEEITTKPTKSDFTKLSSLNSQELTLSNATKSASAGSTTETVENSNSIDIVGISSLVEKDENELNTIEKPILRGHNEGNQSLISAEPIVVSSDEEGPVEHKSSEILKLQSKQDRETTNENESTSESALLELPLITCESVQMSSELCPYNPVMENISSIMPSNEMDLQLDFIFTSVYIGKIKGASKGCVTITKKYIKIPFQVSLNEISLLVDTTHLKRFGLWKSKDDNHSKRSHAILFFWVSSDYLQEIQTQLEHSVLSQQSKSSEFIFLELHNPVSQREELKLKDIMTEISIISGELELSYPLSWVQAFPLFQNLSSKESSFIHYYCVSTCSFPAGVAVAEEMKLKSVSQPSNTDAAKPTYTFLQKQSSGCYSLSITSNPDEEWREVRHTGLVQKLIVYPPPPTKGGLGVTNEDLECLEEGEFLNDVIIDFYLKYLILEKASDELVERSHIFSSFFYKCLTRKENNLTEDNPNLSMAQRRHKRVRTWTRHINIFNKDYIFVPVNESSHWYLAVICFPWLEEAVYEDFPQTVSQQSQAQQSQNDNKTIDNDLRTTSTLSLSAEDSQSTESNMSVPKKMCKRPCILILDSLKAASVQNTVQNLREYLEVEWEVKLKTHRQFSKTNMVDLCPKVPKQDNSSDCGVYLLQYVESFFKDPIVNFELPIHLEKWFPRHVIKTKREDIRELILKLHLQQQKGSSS

[15] = biological target: T2, Sentrin-specific protease 7; assay: inhibition of human SENP7 cleavage activity – biochemical, luminescence, SAR follow-up (AID 504497); type: functional
[16] = biological target: T3, Sentrin-specific protease 6 (Homo sapiens, UniProt Q9GZR1); assay: SAR Analysis of small molecule inhibitors of Sentrin-specific protease 6 (SENP6) using a Luminescent assay. [Related pubchem assays (depositor defined):AID2582, AID2599]; type: functional
T3 sequence (Q9GZR1 whole entry): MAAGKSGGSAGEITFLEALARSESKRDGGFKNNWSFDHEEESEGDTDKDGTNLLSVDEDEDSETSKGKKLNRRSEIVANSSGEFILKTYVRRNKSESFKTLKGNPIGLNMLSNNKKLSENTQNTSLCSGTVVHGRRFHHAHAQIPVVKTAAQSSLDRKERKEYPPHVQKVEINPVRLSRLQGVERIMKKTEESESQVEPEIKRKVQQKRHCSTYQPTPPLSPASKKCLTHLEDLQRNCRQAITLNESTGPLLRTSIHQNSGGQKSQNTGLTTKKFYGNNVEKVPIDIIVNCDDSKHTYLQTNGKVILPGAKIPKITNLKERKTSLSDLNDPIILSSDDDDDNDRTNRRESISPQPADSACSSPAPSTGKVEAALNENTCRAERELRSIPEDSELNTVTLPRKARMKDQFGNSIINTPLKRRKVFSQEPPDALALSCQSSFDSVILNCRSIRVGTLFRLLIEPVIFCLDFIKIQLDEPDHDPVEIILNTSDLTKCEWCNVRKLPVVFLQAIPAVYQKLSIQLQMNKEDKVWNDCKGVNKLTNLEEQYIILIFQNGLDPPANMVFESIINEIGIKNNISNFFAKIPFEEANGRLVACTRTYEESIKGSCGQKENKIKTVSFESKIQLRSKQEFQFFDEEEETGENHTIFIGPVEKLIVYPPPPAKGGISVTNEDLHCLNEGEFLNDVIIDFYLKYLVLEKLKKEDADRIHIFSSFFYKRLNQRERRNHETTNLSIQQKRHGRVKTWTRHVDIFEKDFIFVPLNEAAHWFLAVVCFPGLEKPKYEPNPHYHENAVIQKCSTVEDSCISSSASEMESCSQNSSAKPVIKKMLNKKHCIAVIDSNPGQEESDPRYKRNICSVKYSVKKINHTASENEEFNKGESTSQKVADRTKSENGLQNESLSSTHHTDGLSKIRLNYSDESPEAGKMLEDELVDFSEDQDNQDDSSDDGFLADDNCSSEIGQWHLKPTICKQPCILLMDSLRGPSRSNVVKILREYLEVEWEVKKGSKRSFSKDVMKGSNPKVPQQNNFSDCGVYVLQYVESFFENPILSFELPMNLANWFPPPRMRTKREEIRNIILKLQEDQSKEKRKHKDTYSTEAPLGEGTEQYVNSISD

Caspase-3 [17] = biological target: T1, Caspase-3; assay: inhibition of recombinant caspase-3 activity – biochemical, luminescence, set 2, selectivity assay for SENP protease inhibitor project, SAR follow-up (AID 588599); type: functional
[18] = biological target: T4, Sentrin-specific protease 8 (Homo sapiens, UniProt Q96LD8); assay: inhibition of human SENP8 cleavage activity – biochemical, luminescence, SAR follow-up (AID 504501); type: functional
T4 sequence (Q96LD8 whole entry): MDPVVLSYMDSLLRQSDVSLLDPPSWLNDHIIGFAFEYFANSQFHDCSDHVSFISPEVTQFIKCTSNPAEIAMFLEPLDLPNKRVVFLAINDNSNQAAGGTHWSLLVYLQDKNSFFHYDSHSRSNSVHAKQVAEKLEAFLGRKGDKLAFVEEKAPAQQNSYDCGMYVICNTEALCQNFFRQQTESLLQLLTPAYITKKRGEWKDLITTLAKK

[19] = biological target: T3, Sentrin-specific protease 6; assay: inhibition of human SENP6 catalytic domain – biochemical, luminescence, set 2, SAR follow-up (AID 588598); type: functional
[20] = biological target: T4, Sentrin-specific protease 8; assay: inhibition of sentrin protease 8 – biochemical, luminescence, set 2, SAR follow-up (AID 588601); type: functional

Sequence of Latent membrane protein 1 (P03230 whole entry): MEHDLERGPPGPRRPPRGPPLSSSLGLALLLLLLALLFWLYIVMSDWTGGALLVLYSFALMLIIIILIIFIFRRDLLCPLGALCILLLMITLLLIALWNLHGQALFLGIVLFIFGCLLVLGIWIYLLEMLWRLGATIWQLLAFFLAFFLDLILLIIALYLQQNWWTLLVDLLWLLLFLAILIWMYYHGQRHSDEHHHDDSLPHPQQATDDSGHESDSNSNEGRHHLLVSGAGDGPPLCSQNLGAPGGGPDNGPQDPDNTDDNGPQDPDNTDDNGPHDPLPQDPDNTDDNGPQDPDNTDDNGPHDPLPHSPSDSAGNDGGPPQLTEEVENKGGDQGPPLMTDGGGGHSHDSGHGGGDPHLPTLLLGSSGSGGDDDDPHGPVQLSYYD
Sequence of Beta Lactamase (Q932Y6 whole entry): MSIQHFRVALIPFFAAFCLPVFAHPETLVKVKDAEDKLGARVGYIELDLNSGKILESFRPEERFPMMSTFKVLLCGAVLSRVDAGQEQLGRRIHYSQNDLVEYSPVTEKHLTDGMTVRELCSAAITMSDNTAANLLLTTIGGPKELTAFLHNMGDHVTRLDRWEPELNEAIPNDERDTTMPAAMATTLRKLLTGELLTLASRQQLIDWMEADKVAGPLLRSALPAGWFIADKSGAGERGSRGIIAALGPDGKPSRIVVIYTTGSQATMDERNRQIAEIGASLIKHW

CCOC(=O)c1cnc(-n2nc(C)cc2C)nc1NNc1cc(C)nc(-c2ccccc2)n1
EC50 [1]: 0.344 µM (active) | AC50 [2]: 1.74 µM (active) | AC50 [3]: 81.7 µM (active) | CC50 [4]: 7.39 µM (active) | EC50 (Streptococcus): 1.02 µM (active) | AC50 [5]: 60 µM (active) | EC50 [6]: 6.73 µM (active) | AC50 (INS1): 2.14 µM (active) | AC50 [7]: 3.31 µM (active) | AC50 (HEK293): 3.4 µM (active) | EC50 [8]: 0.355 µM (active) | EC50 [9]: 56.7 µM (active) | EC50 [10]: 2.8 µM (active) | AC50 [11]: 2.29 µM (active) | EC50 [12]: 0.584 µM (active)

O=C1c2cccc3c(N4CCCCC4)ccc(c23)C(=O)N1c1ccccc1O
IC50 (CHO): > 49.8 µM (inactive) | IC50 (Beta Lactamase): 7.63 µM (active)

Fc1ccc(/C=C/c2noc(-c3c(F)cccc3F)n2)cc1
IC50 (Caspase-3 [13]): 34 µM (active) | IC50 [14]: 5.86 µM (active) | IC50 [15]: 11 µM (active) | IC50 [16]: > 99 µM (inactive) | IC50 (Caspase-3 [17]): 30.8 µM (active) | IC50 [18]: > 99 µM (inactive) | IC50 [19]: 4.72 µM (active) | IC50 [20]: 4.97 µM (active)
